We go through nine molecules from paper PMC4368603, “Cardiac Contractility Structure-Activity Relationship and Ligand-Receptor Interactions; the Discovery Of Unique and Novel Molecular Switches in Myosuppressin Signaling” (PLoS ONE, 2015).

The subject of test [1] is R. prolixus heart. Format: in vivo, Rhodnius prolixus. Particulars: for EC50: 5th instar semi-intact preparation, 25 ± 2°C, heart rate as % of saline, non-linear regression, N = 10 animals per condition, read-out: EC50, dose-dependent decrease of R. prolixus heart rate (cardiac contractility). The procedure:
R. prolixus were maintained at 28°C under high humidity in a cycle of 12h:12h (L:D). The insects used were 5th instar 2–3 weeks post-ecdysis fed on chicken blood.
Fifth instar R. prolixus were placed ventral surface down on a dish with paraffin wax and dissected under physiological saline. Segments four to seven from the dorsal abdominal cuticle were removed using minuten pins leaving the dorsal vessel exposed. The semi-intact preparation was equilibrated in 20 μl saline for 20 minutes at room temperature (25° ± 2°C), replacing the fluid with fresh saline every five minutes. Heart rate was measured under saline after the final bath, counting the number of contractions in one minute. This counting was replicated three times for each preparation, and the results of the three countings were averaged. After this, the saline was removed and replaced with an equal volume of solution containing a peptide. The heart rate was measured and expressed as % of the control (saline). Ten animals were analyzed for control and for each experiment. The investigator who performed the bioassay was unaware of the peptide structures being tested.
Dose response curves were generated and the effective concentrations at half-maximal response (EC50) values were calculated using a non-linear regression with GraphPad Prism version 6.03. Activities of RhpMS, DrmMS, and analogs were compared to saline, set at 100%, using Single Factor ANOVA to calculate p values; significance was set at p ≤ 0.05.

Test [2] has as its system gut. Particulars: gut motility SAR; cited from earlier work. The text has this:
Table 3 DrmMS and analogs: structures and activities. | column: Gut || [6–10]DrmMS was the heart rate active core, yet [4–10]DrmMS was the gut motility active core. […] We believed DrmMS-DrmMS-R1 and DrmMS-DrmMS-R2 interactions would reflect our SAR data. N-terminal truncated and alanyl-substituted analogs (Table 3) were docked to the receptors; additional data are available in Supporting Information. In DrmMS docked to DrmMS-R1 (Fig. 4, Table 4), F7 made multipl ...

For test [3], the system named is heart. The note with it: cardiac contractility / heart rate SAR; cited from earlier work. The text has this:
Table 3 DrmMS and analogs: structures and activities. | column: Heart || [6–10]DrmMS was the heart rate active core, yet [4–10]DrmMS was the gut motility active core. […] We believed DrmMS-DrmMS-R1 and DrmMS-DrmMS-R2 interactions would reflect our SAR data. N-terminal truncated and alanyl-substituted analogs (Table 3) were docked to the receptors; additional data are available in Supporting Information. In DrmMS docked to DrmMS-R1 (Fig. 4, Table 4), F7 made multipl ...

Values joined by “and” are separate entries in the source; they are usually repeats but may differ in a detail not shown here. Equal values may be shown once. Square brackets hold non-standard residues; d marks the D form. Ends that are not written are not given here. Peptide text beside a SMILES is read from it. pGlu = O=C1CC[C@@H](C(=O)O)N1

As to `CC[C@H](C)[C@H](NC(=O)[C@H](CC(=O)O)NC(=O)[C@@H]1CCC(=O)N1)C(=O)N[C@@H](CC(=O)O)C(=O)N[C@@H](Cc1c[nH]cn1)C(=O)N[C@H](C(=O)N[C@@H](Cc1ccccc1)C(=O)N[C@@H](CCSC)C(=O)N[C@@H](CCCNC(=N)N)C(=O)N[C@@H](Cc1ccccc1)C(N)=O)C(C)C` [RhpMS] ([pGlu]DIDHVFMRF-NH2), in test [1], the EC50 was 0.14 µM. Moreover, the “Heart Rate Mean ± S.E.M., percent of saline” value in test [1] (peptide at 1 μM, saline = 100%, ten animals per experiment) is 4 % of saline and 4 ± 3 % of saline. As for “DHVFLRF-NH2 [[4–10]DrmMS, N-terminal truncated DrmMS analog DHVFLRF-NH2]”, the Gut activity result in test [2] is “active core”. Besides, in test [3], the Heart activity result was “agonist”. With DHVFMRF-NH2 [[4–10]RhpMS], the EC50 in test [1] stood at 0.032 µM. With “FLRF-NH2 [[7–10]DrmMS, N-terminal truncated DrmMS analog FLRF-NH2]”, the Gut activity result in test [2] is “inactive”. Also, in test [3], the Heart activity result is “inactive”. As to “HVFLRF-NH2 [[5–10]DrmMS, N-terminal truncated DrmMS analog HVFLRF-NH2]”, in test [2], the Gut activity result is reported as “antagonist”. Further, in test [3], the Heart activity entry is “agonist”. Take “TDVDHVFARF-NH2 [[A8] DrmMS, alanyl-substituted DrmMS analog […]-NH2]”: the Gut activity result in test [2] is “inactive”. For the same molecule, in test [3], the Heart activity result was “agonist”. For TDVDHVFLRF-NH2 [DrmMS], the EC50 in test [1] was determined as 0.05 µM.

On to “VFLRF-NH2 [[6–10]DrmMS, N-terminal truncated DrmMS analog VFLRF-NH2]”, for which the Gut activity result in test [2] was “inactive”. The Heart activity entry in test [3] is on record as “active core”. On to Y-T(Bpa)VDHVFLRF-NH2 [Y-Bpa2DrmMS], for which, in test [2], the Gut activity entry was “agonist”. Also, the Heart activity result in test [3] is “agonist”.

Broadly, the EC50 is the midpoint of the concentration-response curve.
